Test results from patent publication US20230130403A1, “METHODS OF TREATMENT WITH S1P RECEPTOR MODULATORS” (PRIOTHERA SAS, priority 2021, published 2023).

Assays:
[1] = tested on: guinea pig papillary muscle preparation; test: APD in guinea pig papillary muscle preparation; conditions: concentrations of 3 μM
Source text: (§1) Based on the available in vitro and in vivo data, except for the potential to cause a negative chronotropic effect and some mild increase in blood pressure, there is no indication that KRP203 would cause arrhythmia or QT prolongation in man.

eye irritation = test: Eye irritation; conditions: in vivo
mice = test: Acute toxicity in mice; type: in vivo
heart rate = test: Heart rate in isolated rabbit heart or guinea pig
Source text: as §1

micronucleus = test: In vivo micronucleus study in mice; parameters: species or system mouse
chromosome aberration = test: In vitro genotoxicity: chromosome aberration; type: cell-based
rats and rabbits = test: Reproductive toxicity studies in rats and rabbits; type: in vivo
[2] = tested on: neuropharmacological effects; test: Safety pharmacology: neuropharmacological effects in rats; type: in vivo, rat; conditions: doses up to 2000 mg/kg, except some piloerection
blood pressure = test: Blood pressure in dogs; type: in vivo, dog
Source text: as §1

hERG channels = hERG channels (Homo sapiens, UniProt Q12809); test: hERG channel inhibition in vitro; type: biochemical; conditions: between 0.5 and 10 μM
hERG channels, sequence (Q12809 whole entry): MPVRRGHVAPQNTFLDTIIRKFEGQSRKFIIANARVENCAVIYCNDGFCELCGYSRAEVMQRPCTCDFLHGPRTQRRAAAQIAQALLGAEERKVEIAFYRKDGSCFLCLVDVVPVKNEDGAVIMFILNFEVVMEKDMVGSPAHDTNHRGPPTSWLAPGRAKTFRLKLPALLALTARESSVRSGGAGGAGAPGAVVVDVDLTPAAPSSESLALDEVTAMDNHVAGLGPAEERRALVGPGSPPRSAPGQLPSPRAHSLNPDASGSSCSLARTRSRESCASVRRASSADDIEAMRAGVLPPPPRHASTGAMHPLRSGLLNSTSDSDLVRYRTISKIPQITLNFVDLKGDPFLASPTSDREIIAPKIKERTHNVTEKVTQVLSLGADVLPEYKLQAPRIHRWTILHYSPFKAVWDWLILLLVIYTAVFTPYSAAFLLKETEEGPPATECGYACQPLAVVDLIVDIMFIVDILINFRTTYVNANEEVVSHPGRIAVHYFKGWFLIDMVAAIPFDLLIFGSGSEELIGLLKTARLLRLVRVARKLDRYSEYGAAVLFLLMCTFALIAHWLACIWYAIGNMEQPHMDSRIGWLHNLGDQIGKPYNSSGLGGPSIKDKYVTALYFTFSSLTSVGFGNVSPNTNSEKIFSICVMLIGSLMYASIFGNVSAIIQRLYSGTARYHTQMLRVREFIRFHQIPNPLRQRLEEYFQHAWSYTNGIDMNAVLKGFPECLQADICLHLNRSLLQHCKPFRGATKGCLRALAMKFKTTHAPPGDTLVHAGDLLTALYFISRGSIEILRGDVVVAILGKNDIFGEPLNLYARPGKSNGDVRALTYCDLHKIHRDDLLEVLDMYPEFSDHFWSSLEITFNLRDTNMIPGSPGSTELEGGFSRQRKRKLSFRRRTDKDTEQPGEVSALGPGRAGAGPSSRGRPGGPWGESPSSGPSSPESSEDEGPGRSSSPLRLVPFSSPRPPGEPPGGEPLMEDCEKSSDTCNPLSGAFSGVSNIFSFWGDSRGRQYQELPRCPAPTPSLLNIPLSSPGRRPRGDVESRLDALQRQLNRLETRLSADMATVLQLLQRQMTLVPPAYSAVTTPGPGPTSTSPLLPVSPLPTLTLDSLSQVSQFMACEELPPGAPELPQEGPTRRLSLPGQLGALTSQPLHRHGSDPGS
Source text: as §1

[3] = tested on: peripheral lymphocyte counts; test: Recovery of absolute lymphocyte counts after S1P modulator dosing in healthy volunteers; type: in vivo, human; conditions: single 1 mg FTY720, BAF312 multiple doses for 28 days, single 3 mg KRP203
Description: Mocravimod is particularly preferred. […] A measurable parameter that determines maintenance of the mode of action, i.e., sequestering of lymphocytes in secondary lymphoid organs and bone marrow, is reduction of peripheral lymphocyte counts. Recovery of absolute lymphocyte counts to 80% of normal counts after a single 1 mg dose of FTY720, multiple dose applications of BAF312 for 28 days, or a single 3 mg dose of KRP203 was reached after 8, 7 and more than 10 days, respectively.

[4] = tested on: hematological cytotoxicity; test: Hematological cytotoxicity in vitro; type: cell-based; conditions: therapeutic concentrations in vitro
Source text: KRP203 reduces lymphocyte counts in peripheral blood by more than 80%.

[5] = tested on: pulmonary endothelial barrier; test: Pulmonary endothelial barrier after single oral dose; type: in vivo
Source text: as §1

[6] = tested on: bronchoconstrictor response induced by challenge agents; test: Safety pharmacology: bronchoconstrictor response in rats; type: in vivo, rat; conditions: rats pre-treated with 3 mg/kg
Source text: as §1

bacterial mutation = test: In vitro genotoxicity: bacterial mutation; type: cell-based
dogs = test: Acute toxicity in dogs; type: in vivo, dog
Description: No mortality was seen following single oral dosing in dogs up to 2000 mg/kg.

rats = test: Acute toxicity in rats; type: in vivo
liver = test: Genomic profiling of the liver in a 2-week exploratory toxicity study in rats; type: in vivo, rat

NC(CO)(CO)CCc1ccc(Sc2cccc(OCc3ccccc3)c2)cc1Cl [KRP203, 2-amino-2-[4-(3-benzyloxyphenylthio)-2-chlorophenyl] ethyl-propane-1,3-diol]
APD prolongation [1]: No APD prolongation
eye irritation (eye irritation): marked eye irritation
intravenous dose producing lethality (mice): above 50 mg/kg
potential to decrease heart rate, extrapolated exposure (heart rate): 20.1 µM
genotoxic potential (micronucleus): no evidence for a genotoxic potential
genotoxic potential (chromosome aberration): no evidence for a genotoxic potential
no effects on male fertility up to highest dose (rats and rabbits; in vivo): ≤ 20 mg/kg
NOAEL for embryo lethality and malformations (rats and rabbits; rat study): no NOAEL
reproductive toxicity (rats and rabbits; rats and rabbits): teratogenic potential and effects on the reproductive tract, resulting in embryo lethality and malformations at low doses
neuropharmacological effects [2]: no adverse neuropharmacological effects
potential to increase blood pressure, extrapolated exposure (blood pressure): 20.3 µM
inhibition of hERG channels (hERG channels): slight inhibitory potential
Recovery of absolute lymphocyte counts to 80% of normal counts [3]: more than 10 days
exhibits hematological cytotoxicity [4]: does not
effect on pulmonary endothelial barrier [5]: mildly decreased pulmonary endothelial barrier
effects on bronchoconstrictor response induced by challenge agents [6]: no significant effects
genotoxic potential (bacterial mutation): no evidence for a genotoxic potential
no mortality following single oral dosing up to (dogs): up to 2000 mg/kg
intravenous dose producing lethality (rats): above 50 mg/kg
oral dose producing lethality (rats): 1000 mg/kg
hepatotoxicity-related changes in genomic profiling of the liver (liver): did not indicate any hepatotoxicity-related changes
